Test results taken from patent US20140348819A1, “Methods of Treating Cancer” (Dana-Farber Cancer Institute, Inc., priority 2011, published 2014).

Tested on: six V600E BRAF melanoma cell lines
Assay: Screening of recombinant RTK ligands for ability to confer resistance to BRAFi (PLX4720) or MEKi (PD184352) (Table 4)
Format: cell-based, human
Parameters: ability of recombinant RTK ligand to confer resistance / ability of recombinant RTK ligand to confer resistance (screening value): scale not given here
Procedure, shortened: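 Resistance to BRAFi (PLX4720) or MEKi (PD184352) was tested in six V600E BRAF melanoma lines given one of 22 recombinant RTK ligands. For a subset of RTKs, activation was checked by high-throughput tyrosine kinase phosphorylation profiling and western blot.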

[1] = A2058, PD184352 - 1 uM, ligand 1.6 ng/ml
[2] = A2058, PD184352 - 1 uM, ligand 6.25 ng/ml
[3] = A2058, PD184352 - 1 uM, ligand 25 ng/ml
[4] = A2058, PD184352 - 1 uM, ligand 100 ng/ml
[5] = A2058, PLX4720 - 2 uM, ligand 1.6 ng/ml
[6] = A2058, PLX4720 - 2 uM, ligand 6.25 ng/ml
[7] = A2058, PLX4720 - 2 uM, ligand 25 ng/ml
[8] = A2058, PLX4720 - 2 uM, ligand 100 ng/ml
[9] = C32, PD184352 - 1 uM, ligand 1.6 ng/ml
[10] = C32, PD184352 - 1 uM, ligand 6.25 ng/ml
[11] = C32, PD184352 - 1 uM, ligand 25 ng/ml
[12] = C32, PD184352 - 1 uM, ligand 100 ng/ml
[13] = C32, PLX4720 - 2 uM, ligand 1.6 ng/ml
[14] = C32, PLX4720 - 2 uM, ligand 6.25 ng/ml
[15] = C32, PLX4720 - 2 uM, ligand 25 ng/ml
[16] = C32, PLX4720 - 2 uM, ligand 100 ng/ml
[17] = Colo 829, PD184352 - 1 uM, ligand 1.6 ng/ml
[18] = Colo 829, PD184352 - 1 uM, ligand 6.25 ng/ml
[19] = Colo 829, PD184352 - 1 uM, ligand 25 ng/ml
[20] = Colo 829, PD184352 - 1 uM, ligand 100 ng/ml
[21] = Colo 829, PLX4720 - 2 uM, ligand 1.6 ng/ml
[22] = Colo 829, PLX4720 - 2 uM, ligand 6.25 ng/ml
[23] = Colo 829, PLX4720 - 2 uM, ligand 25 ng/ml
[24] = Colo 829, PLX4720 - 2 uM, ligand 100 ng/ml
[25] = G-361, PD184352 - 1 uM, ligand 1.6 ng/ml
[26] = G-361, PD184352 - 1 uM, ligand 6.25 ng/ml
[27] = G-361, PD184352 - 1 uM, ligand 25 ng/ml
[28] = G-361, PD184352 - 1 uM, ligand 100 ng/ml
[29] = G-361, PLX4720 - 2 uM, ligand 1.6 ng/ml
[30] = G-361, PLX4720 - 2 uM, ligand 6.25 ng/ml
[31] = G-361, PLX4720 - 2 uM, ligand 25 ng/ml
[32] = G-361, PLX4720 - 2 uM, ligand 100 ng/ml
[33] = SK-MEL-5, PD184352 - 1 uM, ligand 1.6 ng/ml
[34] = SK-MEL-5, PD184352 - 1 uM, ligand 6.25 ng/ml
[35] = SK-MEL-5, PD184352 - 1 uM, ligand 25 ng/ml
[36] = SK-MEL-5, PD184352 - 1 uM, ligand 100 ng/ml
[37] = SK-MEL-5, PLX4720 - 2 uM, ligand 1.6 ng/ml
[38] = SK-MEL-5, PLX4720 - 2 uM, ligand 6.25 ng/ml
[39] = SK-MEL-5, PLX4720 - 2 uM, ligand 25 ng/ml
[40] = SK-MEL-5, PLX4720 - 2 uM, ligand 100 ng/ml
[41] = SK-MEL-28, PD184352 - 1 uM, ligand 1.6 ng/ml
[42] = SK-MEL-28, PD184352 - 1 uM, ligand 6.25 ng/ml
[43] = SK-MEL-28, PD184352 - 1 uM, ligand 25 ng/ml
[44] = SK-MEL-28, PD184352 - 1 uM, ligand 100 ng/ml
[45] = SK-MEL-28, PLX4720 - 2 uM, ligand 1.6 ng/ml
[46] = SK-MEL-28, PLX4720 - 2 uM, ligand 6.25 ng/ml
[47] = SK-MEL-28, PLX4720 - 2 uM, ligand 25 ng/ml
[48] = SK-MEL-28, PLX4720 - 2 uM, ligand 100 ng/ml

Substance: SCF
- ability of recombinant RTK ligand to confer resistance (A2058, PD184352 - 1 uM, ligand 0.4 ng/ml): 1.04
- ability of recombinant RTK ligand to confer resistance [1]: 1.04
- ability of recombinant RTK ligand to confer resistance [2]: 1.13
- ability of recombinant RTK ligand to confer resistance [3]: 1.12
- ability of recombinant RTK ligand to confer resistance [4]: 1.09
- ability of recombinant RTK ligand to confer resistance (A2058, PLX4720 - 2 uM, ligand 0.4 ng/ml): 1.04
- ability of recombinant RTK ligand to confer resistance [5]: 1.06
- ability of recombinant RTK ligand to confer resistance [6]: 1.07
- ability of recombinant RTK ligand to confer resistance [7]: 1.13
- ability of recombinant RTK ligand to confer resistance [8]: 1.08
- ability of recombinant RTK ligand to confer resistance (C32, PD184352 - 1 uM, ligand 0.4 ng/ml): 1.02
- ability of recombinant RTK ligand to confer resistance [9]: 1.05
- ability of recombinant RTK ligand to confer resistance [10]: 1.03
- ability of recombinant RTK ligand to confer resistance [11]: 1.04
- ability of recombinant RTK ligand to confer resistance [12]: 0.98
- ability of recombinant RTK ligand to confer resistance (C32, PLX4720 - 2 uM, ligand 0.4 ng/ml): 1.05
- ability of recombinant RTK ligand to confer resistance [13]: 0.94
- ability of recombinant RTK ligand to confer resistance [14]: 0.97
- ability of recombinant RTK ligand to confer resistance [15]: 0.98
- ability of recombinant RTK ligand to confer resistance [16]: 0.96
- ability of recombinant RTK ligand to confer resistance (Colo 829, PD184352 - 1 uM, ligand 0.4 ng/ml): 1.00
- ability of recombinant RTK ligand to confer resistance [17]: 1.08
- ability of recombinant RTK ligand to confer resistance [18]: 1.15
- ability of recombinant RTK ligand to confer resistance [19]: 1.18
- ability of recombinant RTK ligand to confer resistance [20]: 1.09
- ability of recombinant RTK ligand to confer resistance (Colo 829, PLX4720 - 2 uM, ligand 0.4 ng/ml): 0.96
- ability of recombinant RTK ligand to confer resistance [21]: 1.01
- ability of recombinant RTK ligand to confer resistance [22]: 1.06
- ability of recombinant RTK ligand to confer resistance [23]: 1.10
- ability of recombinant RTK ligand to confer resistance [24]: 1.04
- ability of recombinant RTK ligand to confer resistance (G-361, PD184352 - 1 uM, ligand 0.4 ng/ml): 1.06
- ability of recombinant RTK ligand to confer resistance [25]: 0.99
- ability of recombinant RTK ligand to confer resistance [26]: 1.06
- ability of recombinant RTK ligand to confer resistance [27]: 1.13
- ability of recombinant RTK ligand to confer resistance [28]: 1.07
- ability of recombinant RTK ligand to confer resistance (G-361, PLX4720 - 2 uM, ligand 0.4 ng/ml): 1.07
- ability of recombinant RTK ligand to confer resistance [29]: 1.03
- ability of recombinant RTK ligand to confer resistance [30]: 1.04
- ability of recombinant RTK ligand to confer resistance [31]: 1.12
- ability of recombinant RTK ligand to confer resistance [32]: 1.07
- ability of recombinant RTK ligand to confer resistance (SK-MEL-5, PD184352 - 1 uM, ligand 0.4 ng/ml): 0.97
- ability of recombinant RTK ligand to confer resistance [33]: 0.34
- ability of recombinant RTK ligand to confer resistance [34]: 1.02
- ability of recombinant RTK ligand to confer resistance [35]: 1.10
- ability of recombinant RTK ligand to confer resistance [36]: 1.12
- ability of recombinant RTK ligand to confer resistance (SK-MEL-5, PLX4720 - 2 uM, ligand 0.4 ng/ml): 0.90
- ability of recombinant RTK ligand to confer resistance [37]: 8.91
- ability of recombinant RTK ligand to confer resistance [38]: 0.96
- ability of recombinant RTK ligand to confer resistance [39]: 1.00
- ability of recombinant RTK ligand to confer resistance [40]: 1.09
- ability of recombinant RTK ligand to confer resistance (SK-MEL-28, PD184352 - 1 uM, ligand 0.4 ng/ml): 1.03
- ability of recombinant RTK ligand to confer resistance [41]: 0.94
- ability of recombinant RTK ligand to confer resistance [42]: 1.01
- ability of recombinant RTK ligand to confer resistance [43]: 1.06
- ability of recombinant RTK ligand to confer resistance [44]: 0.99
- ability of recombinant RTK ligand to confer resistance (SK-MEL-28, PLX4720 - 2 uM, ligand 0.4 ng/ml): 0.92
- ability of recombinant RTK ligand to confer resistance [45]: 0.89
- ability of recombinant RTK ligand to confer resistance [46]: 0.98
- ability of recombinant RTK ligand to confer resistance [47]: 0.92
- ability of recombinant RTK ligand to confer resistance [48]: 0.98

Substance: neuregulin 1
- ability of recombinant RTK ligand to confer resistance [1]: 1.04
- ability of recombinant RTK ligand to confer resistance [2]: 1.08
- ability of recombinant RTK ligand to confer resistance [3]: 1.14
- ability of recombinant RTK ligand to confer resistance [4]: 1.18
- ability of recombinant RTK ligand to confer resistance (A2058, PD184352 - 1 uM, ligand 400 ng/ml): 1.27
- ability of recombinant RTK ligand to confer resistance [5]: 1.05
- ability of recombinant RTK ligand to confer resistance [6]: 1.07
- ability of recombinant RTK ligand to confer resistance [7]: 1.12
- ability of recombinant RTK ligand to confer resistance [8]: 1.09
- ability of recombinant RTK ligand to confer resistance (A2058, PLX4720 - 2 uM, ligand 400 ng/ml): 1.22
- ability of recombinant RTK ligand to confer resistance [9]: 1.12
- ability of recombinant RTK ligand to confer resistance [10]: 1.20
- ability of recombinant RTK ligand to confer resistance [11]: 1.24
- ability of recombinant RTK ligand to confer resistance [12]: 1.52
- ability of recombinant RTK ligand to confer resistance (C32, PD184352 - 1 uM, ligand 400 ng/ml): 1.32
- ability of recombinant RTK ligand to confer resistance [13]: 1.01
- ability of recombinant RTK ligand to confer resistance [14]: 1.07
- ability of recombinant RTK ligand to confer resistance [15]: 1.10
- ability of recombinant RTK ligand to confer resistance [16]: 1.20
- ability of recombinant RTK ligand to confer resistance (C32, PLX4720 - 2 uM, ligand 400 ng/ml): 1.22
- ability of recombinant RTK ligand to confer resistance [17]: 1.10
- ability of recombinant RTK ligand to confer resistance [18]: 1.04
- ability of recombinant RTK ligand to confer resistance [19]: 1.11
- ability of recombinant RTK ligand to confer resistance [20]: 1.37
- ability of recombinant RTK ligand to confer resistance (Colo 829, PD184352 - 1 uM, ligand 400 ng/ml): 1.21
- ability of recombinant RTK ligand to confer resistance [21]: 0.03
- ability of recombinant RTK ligand to confer resistance [22]: 0.98
- ability of recombinant RTK ligand to confer resistance [23]: 1.06
- ability of recombinant RTK ligand to confer resistance [24]: 1.24
- ability of recombinant RTK ligand to confer resistance (Colo 829, PLX4720 - 2 uM, ligand 400 ng/ml): 1.17
- ability of recombinant RTK ligand to confer resistance [25]: 0.93
- ability of recombinant RTK ligand to confer resistance [26]: 0.96
- ability of recombinant RTK ligand to confer resistance [27]: 0.98
- ability of recombinant RTK ligand to confer resistance [28]: 1.01
- ability of recombinant RTK ligand to confer resistance (G-361, PD184352 - 1 uM, ligand 400 ng/ml): 1.17
- ability of recombinant RTK ligand to confer resistance [29]: 0.87
- ability of recombinant RTK ligand to confer resistance [30]: 1.06
- ability of recombinant RTK ligand to confer resistance [31]: 0.93
- ability of recombinant RTK ligand to confer resistance [32]: 0.99
- ability of recombinant RTK ligand to confer resistance (G-361, PLX4720 - 2 uM, ligand 400 ng/ml): 1.14
- ability of recombinant RTK ligand to confer resistance [33]: 0.96
- ability of recombinant RTK ligand to confer resistance [34]: 0.97
- ability of recombinant RTK ligand to confer resistance [35]: 1.01
- ability of recombinant RTK ligand to confer resistance [36]: 1.06
- ability of recombinant RTK ligand to confer resistance (SK-MEL-5, PD184352 - 1 uM, ligand 400 ng/ml): 1.07
- ability of recombinant RTK ligand to confer resistance [37]: 0.94
- ability of recombinant RTK ligand to confer resistance [38]: 0.91
- ability of recombinant RTK ligand to confer resistance [39]: 0.98
- ability of recombinant RTK ligand to confer resistance [40]: 1.04
- ability of recombinant RTK ligand to confer resistance (SK-MEL-5, PLX4720 - 2 uM, ligand 400 ng/ml): 0.96
- ability of recombinant RTK ligand to confer resistance [41]: 1.09
- ability of recombinant RTK ligand to confer resistance [42]: 1.08
- ability of recombinant RTK ligand to confer resistance [43]: 1.05
- ability of recombinant RTK ligand to confer resistance [44]: 1.08
- ability of recombinant RTK ligand to confer resistance (SK-MEL-28, PD184352 - 1 uM, ligand 400 ng/ml): 1.22
- ability of recombinant RTK ligand to confer resistance [45]: 0.92
- ability of recombinant RTK ligand to confer resistance [46]: 1.18
- ability of recombinant RTK ligand to confer resistance [47]: 1.09
- ability of recombinant RTK ligand to confer resistance [48]: 1.09
- ability of recombinant RTK ligand to confer resistance (SK-MEL-28, PLX4720 - 2 uM, ligand 400 ng/ml): 1.19
